Experimental data reported in patent US11447485B2, “Class of bifunctional compounds with quanternary ammonium salt structure” (Beijing Showby Pharmaceutical Co., Ltd., priority 2016, dated 2022).
Where two headings read alike, the source gives them in different places.

Legend:
[1] = test system: tracheal smooth muscle of guinea pig; assay: Relaxation of CCh-induced constriction of isolated guinea pig tracheal smooth muscle (Experimental Example 1); conditions: for EC50: Cavia porcellus, read-out: EC50 (μM) ± SD
Method: The upper end was connected with a muscle tension transducer, and the specimen was given a resting tension of 1.0 g. Muscle tension changes were recorded, nutrient solution was changed every 20 min, and the experiment was started after 60 min of equilibrium.
Administration Method: After the trachea flake were stabilized, 3×10^−6 mol/L CCh was added to the bath. […] Diastolic condition of the trachea flake was observed. If no response occurred (below the threshold concentration), the next dosage was continued to be added in the order. If any response occurred, the next dosage was added until its diastolic platform was reached. The above operation was repeated until the shrink curve reached the minimum. Finally, 10^−6 mol/L isoproterenol was added to establish maximum relaxation, and the curve was recorded.
Statistical Methods: Statistics was performed using the Sigma Stat statistical software package, the data was analyzed by using the variance analysis. Student-Newman-Keuls (SNK) test was used in comparison among multiple sample averages number. The statistical test level was α=0.05 (bilateral).

[2] = biological target: T1, human recombinant β2 adrenoceptor (Homo sapiens, UniProt P07550); assay: cell-based; type: cell-based; conditions: EC50 (β1)/EC50 (β2)
T1 construct: expressed in transfected cells
T1 sequence (P07550 whole entry): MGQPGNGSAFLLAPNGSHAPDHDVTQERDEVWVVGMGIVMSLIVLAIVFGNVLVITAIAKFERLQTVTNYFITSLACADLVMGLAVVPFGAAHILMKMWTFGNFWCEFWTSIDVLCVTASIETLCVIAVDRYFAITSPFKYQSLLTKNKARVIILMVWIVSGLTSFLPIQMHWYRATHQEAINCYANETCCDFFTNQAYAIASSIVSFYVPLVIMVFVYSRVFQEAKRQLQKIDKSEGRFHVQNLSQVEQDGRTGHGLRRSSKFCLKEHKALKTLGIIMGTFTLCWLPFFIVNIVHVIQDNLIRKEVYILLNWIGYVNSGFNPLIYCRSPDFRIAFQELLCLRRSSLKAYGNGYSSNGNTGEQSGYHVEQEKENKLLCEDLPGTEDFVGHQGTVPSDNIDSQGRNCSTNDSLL

## COc1cc(CNCC(O)c2ccc(O)c3[nH]c(=O)ccc23)c(Cl)cc1NC(=O)CC[N+]12CCC(CC1)C(OCC(O)(c1ccccc1)C1CCCC1)C2 [Compound 115, (R)-(−)-3-[(R)-2-hydroxy-2-cyclopentyl-2-phenyl]ethoxy-1-{3-[5-chloro-2-methoxy-4-({(R)-[2-hydroxy-2-(8-hydroxy-2-oxo-1,2-dihydroquinolin-5-yl)]ethylamino}methyl)anilino]oxopropyl}-1-azabicyclo[2,2,2]octylonium bromide]
[1]; CCh 3 × 10^−6 mol/L, in vitro
  Onset time (min) ± SD: 6.82 ± 0.36 min
  Time for eliminating inhibition effect (min): more than 300 min
[1]
  EC50: 0.0237 ± 0.01 µM
[2]
  sel (β1/β2): 85.5

## CC(NC[C@H](O)c1ccc(O)c(NC=O)c1)c1ccc(COCC[N+]23CCC(CC2)[C@@H](OC[C@@](O)(c2ccccc2)C2CCCC2)C3)cc1 (stereo partly drawn) [Compound 117, (R)-(−)-3-[(R)-2-hydroxy-2-cyclopentyl-2-phenyl]ethoxy-1-{2-[4-(2-{(R)-[2-hydroxy-2-(3-formamido-4-hydroxy)phenyl]ethylamino}ethylidene)benzyloxy]ethyl}-1-azabicyclo[2,2,2]octylonium bromide]
[1]; CCh 3 × 10^−6 mol/L, in vitro
  Onset time (min) ± SD: 5.96 ± 0.21 min
  Time for eliminating inhibition effect (min): more than 300 min
[1]
  EC50: 0.0217 ± 0.0081 µM
[2]
  sel (β1/β2): 39.8

## CCC(NC[C@H](O)c1ccc(O)c2[nH]c(=O)ccc12)c1ccc(OCCC[N+]23CCC(CC2)[C@@H](OC[C@@](O)(c2ccccc2)C2CCCC2)C3)cc1 (stereo partly drawn) [Compound 62, (R)-(−)-3-[(R)-2-hydroxy-2-cyclopentyl-2-phenyl]ethoxy-1-{3-[4-(1-{(R)-[2-hydroxy-2-(8-hydroxy-2-oxo-1,2-dihydroquinolin-5-yl)]ethylamino}propylidene)phenoxy]propyl}-1-azabicyclo[2,2,2]octylonium bromide]
[1]; CCh 3 × 10^−6 mol/L, in vitro
  Onset time (min) ± SD: 7.02 ± 0.22 min
  Time for eliminating inhibition effect (min): more than 300 min
[1]
  EC50: 0.0351 ± 0.01 µM
[2]
  sel (β1/β2): 126.7

## O=C1COc2c(cc(O)cc2[C@@H](O)CNCc2ccc(OCCC[N+]34CCC(CC3)[C@@H](OC[C@@](O)(c3ccccc3)C3CCCC3)C4)cc2)N1 [Compound 102]
[1]; CCh 3 × 10^−6 mol/L, in vitro
  Onset time (min) ± SD: 5.78 ± 0.23 min
  Time for eliminating inhibition effect (min): more than 300 min
[1]
  EC50: 0.0371 ± 0.019 µM
[2]
  sel (β1/β2): 102.6

## CC(C)(NC[C@H](O)c1ccc(O)c(CO)c1)c1ccc(OCCC[N+]23CCC(CC2)[C@@H](OC[C@@](O)(c2ccccc2)C2CCCC2)C3)cc1.[Br-] [Compound 71]
[1]; CCh 3 × 10^−6 mol/L, in vitro
  Onset time (min) ± SD: 6.92 ± 0.26 min
  Time for eliminating inhibition effect (min): more than 300 min
[1]
  EC50: 0.019 ± 0.0061 µM
[2]
  sel (β1/β2): 468.2

## OCc1cc([C@@H](O)CNCCOc2ccc(OCC[N+]34CCC(CC3)[C@@H](OC[C@@](O)(c3ccccc3)C3CCCC3)C4)cc2)ccc1O [Compound 114, (R)-(−)-3-[(R)-2-hydroxy-2-cyclopentyl-2-phenyl]ethoxy-1-{2-[4-(2-{(R)-[2-(3-hydroxymethyl-4-hydroxy)phenyl-2-hydroxy]ethylamino}ethyoxyl)phenoxy]ethyl}-1-azabicyclo[2,2,2]octylonium bromide]
[1]; CCh 3 × 10^−6 mol/L, in vitro
  Onset time (min) ± SD: 6.24 ± 0.13 min
  Time for eliminating inhibition effect (min): more than 300 min
[2]
  sel (β1/β2): 98.9

## O=C(CC[N+]12CCC(CC1)[C@@H](OC[C@@](O)(c1ccccc1)C1CCCC1)C2)Nc1ccc(CNC[C@H](O)c2cc(O)cc3c2OCC(=O)N3)cc1 [Compound 116, (R)-(−)-3-[(R)-2-hydroxy-2-cyclopentyl-2-phenyl]ethoxy-1-{3-[4-({(R)-[2-hydroxy-2-(6-hydroxy-2H-1,4-benzoxazin-3(4H)-one-8-yl)]ethylamino}methyl)anilino]oxopropyl}-1-azabicyclo[2,2,2]octylonium bromide]
[1]; CCh 3 × 10^−6 mol/L, in vitro
  Onset time (min) ± SD: 6.28 ± 0.56 min
  Time for eliminating inhibition effect (min): more than 300 min
[1]
  EC50: 0.0267 ± 0.0072 µM
[2]
  sel (β1/β2): 68.8

## CC(C)(Cc1ccc(OCC[N+]23CCC(CC2)[C@@H](OC[C@@](O)(c2ccccc2)C2CCCC2)C3)cc1)NC[C@H](O)c1cc(O)cc2c1OCC(=O)N2 [Compound 60, (R)-(−)-3-[(R)-2-hydroxy-2-cyclopentyl-2-phenyl]ethoxy-1-{2-[4-(2-{(R)[-2-hydroxy-2-(6-hydroxy-2H-1,4-benzoxazin-3(4H)-one-8-yl)]ethylamino}isobutyl)phenoxy]ethyl}-1-azabicyclo[2,2,2]octylonium bromide]
[1]; CCh 3 × 10^−6 mol/L, in vitro
  Onset time (min) ± SD: 6.59 ± 0.43 min
  Time for eliminating inhibition effect (min): more than 300 min
[1]
  EC50: 0.0523 ± 0.018 µM
[2]
  sel (β1/β2): 12.3

## COC1CCC([C@@](O)(CO[C@H]2C[N+]3(CCC(=O)Nc4ccc(CNC[C@H](O)c5ccc(O)c(NC=O)c5)cc4)CCC2CC3)c2ccccc2)C1.[Br-] (stereo partly drawn) [Compound 141]
[1]; CCh 3 × 10^−6 mol/L, in vitro
  Onset time (min) ± SD: 5.88 ± 0.26 min
  Time for eliminating inhibition effect (min): more than 300 min
[1]
  EC50: 0.0363 ± 0.0095 µM
[2]
  sel (β1/β2): 135.9

## OCc1cc(C(O)CNCCCCOCCCC[N+]23CCC(CC2)C(OCC(O)(c2ccccc2)C2CCCC2)C3)ccc1O [Compound 27, (R)-(−)-3-[(R)-2-hydroxy-2-cyclopentyl-2-phenyl]ethoxy-1-[4-(4-{(R)-[2-(3-hydroxymethyl-4-hydroxy)phenyl-2-hydroxy]ethylamino}butoxy)butyl-1-azabicyclo[2,2,2]octylonium bromide]
[1]; CCh 3 × 10^−6 mol/L, in vitro
  Onset time (min) ± SD: 5.54 ± 0.43 min
  Time for eliminating inhibition effect (min): more than 300 min
[1]
  EC50: 0.152 ± 0.086 µM
[2]
  sel (β1/β2): 78.9

## O=C1COc2c(cc(O)cc2[C@@H](O)CNCCCc2ccc(OCCC[N+]34CCC(CC3)[C@@H](OC[C@@](O)(c3ccccc3)C3CCCC3)C4)cc2)N1 [Compound 104]
[1]; CCh 3 × 10^−6 mol/L, in vitro
  Onset time (min) ± SD: 6.67 ± 0.17 min
  Time for eliminating inhibition effect (min): more than 300 min
[1]
  EC50: 0.0106 ± 0.0079 µM
[2]
  sel (β1/β2): 29.6

## CCC(NC[C@H](O)c1ccc(O)c(NC=O)c1)c1ccc(OCCC[N+]23CCC(CC2)[C@@H](OC[C@@](O)(c2ccccc2)C2CCCC2)C3)cc1.[Br-] (stereo partly drawn) [Compound 97]
[1]; CCh 3 × 10^−6 mol/L, in vitro
  Onset time (min) ± SD: 6.36 ± 0.22 min
  Time for eliminating inhibition effect (min): more than 300 min
[1]
  EC50: 0.0167 ± 0.0062 µM
[2]
  sel (β1/β2): 56.7

## Cc1cc(CNC[C@H](O)c2ccc(O)c(NC=O)c2)ccc1NC(=O)CC[N+]12CCC(CC1)[C@@H](OC[C@@](O)(c1ccccc1)C1CCCC1)C2.[Br-] [Compound 140]
[1]; CCh 3 × 10^−6 mol/L, in vitro
  Onset time (min) ± SD: 6.18 ± 0.18 min
  Time for eliminating inhibition effect (min): more than 300 min
[1]
  EC50: 0.0235 ± 0.0054 µM
[2]
  sel (β1/β2): 86.9

## CC(Cc1ccc(OCC[N+]23CCC(CC2)[C@@H](OC[C@@](O)(c2ccccc2)C2CCCC2)C3)cc1)NC[C@H](O)c1ccc(O)c(CO)c1.[Br-] (stereo partly drawn) [Compound 75]
[1]; CCh 3 × 10^−6 mol/L, in vitro
  Onset time (min) ± SD: 6.38 ± 0.35 min
  Time for eliminating inhibition effect (min): more than 300 min
[1]
  EC50: 0.176 ± 0.031 µM
[2]
  sel (β1/β2): 56.8

## CC(C)[N+]1(C)[C@@H]2CC[C@H]1C[C@@H](OC(=O)C(CO)c1ccccc1)C2 (stereo partly drawn) [Ipratropium bromide, ipratropium bromide, reference compound]
[1]; CCh 3 × 10^−6 mol/L, in vitro
  Onset time (min) ± SD: 6.82 ± 0.28 min
  Time for eliminating inhibition effect: 185 min
[1]; CCh 3 × 10^−6 mol/L, in vitro, listed as ipratropium bromide
  Time for eliminating inhibition effect (min): short duration of action
[1]; constriction induced by CCh 3 × 10^−6 mol/L, in vitro
  EC50: 0.0361 ± 0.0046 µM

## O=CNc1cc(C(O)CNCCOCCOCC[N+]23CCC(CC2)C(OCC(O)(c2ccccc2)C2CCCC2)C3)ccc1O [Compound 46, (R)-(−)-3-[(R)-2-hydroxy-2-cyclopentyl-2-phenyl]ethoxy-1-{2-[2-(2-{(R)-[2-hydroxy-2-(3-formamido-4-hydroxy)phenyl]ethylamino}ethoxy)ethoxy]ethyl}-1-azabicyclo[2,2,2]octylonium chloride]
[1]; CCh 3 × 10^−6 mol/L, in vitro
  Onset time (min) ± SD: 6.75 ± 0.33 min
  Time for eliminating inhibition effect (min): more than 300 min
[1]
  EC50: 0.136 ± 0.068 µM
[2]
  sel (β1/β2): 68.9

## O=C1COc2c(cc(O)cc2[C@@H](O)CNCCOCc2ccc(COCC[N+]34CCC(CC3)[C@@H](OC[C@@](O)(c3ccccc3)C3CCCC3)C4)cc2)N1 [Compound 118, (R)-(−)-3-[(R)-2-hydroxy-2-cyclopentyl-2-phenyl]ethoxy-1-{2-[4-(2-{(R)-[2-hydroxy-2-(6-hydroxy-2H-1,4-benzoxazin-3(4H)-one-8-yl)]ethylamino}ethoxymethyl)benzyloxy]ethyl}-1-azabicyclo[2,2,2]octylonium bromide]
[1]; CCh 3 × 10^−6 mol/L, in vitro
  Onset time (min) ± SD: 6.24 ± 0.41 min
  Time for eliminating inhibition effect (min): more than 300 min
[1]
  EC50: 0.0241 ± 0.012 µM
[2]
  sel (β1/β2): 23.8

## O=CNc1cc([C@@H](O)CNCCCCOCC[N+]23CCC(CC2)[C@@H](OC[C@@](O)(c2ccccc2)C2CCCC2)C3)ccc1O [Compound 25, (R)-(−)-3-[(R)-2-hydroxy-2-cyclopentyl-2-phenyl]ethoxy-1-[2-(4-{(R)-[2-hydroxy-2-(3-formamido-4-hydroxy)phenyl]ethylamino}butoxy)ethyl]-1-azabicyclo[2,2,2]octylonium bromide]
[1]; CCh 3 × 10^−6 mol/L, in vitro
  Onset time (min) ± SD: 6.86 ± 0.22 min
  Time for eliminating inhibition effect (min): more than 300 min
[1]
  EC50: 0.822 ± 0.27 µM
[2]
  sel (β1/β2): 30.8

## O=CNc1cc([C@@H](O)CNCCCC[N+]23CCC(CC2)[C@@H](OC[C@@](O)(c2ccccc2)C2CCCC2)C3)ccc1O [Compound 4, (R)-(−)-3-[(R)-2-hydroxy-2-cyclopentyl-2-phenyl]ethoxy-1-(4-{(R)-[2-hydroxy-2-(3-formamido-4-hydroxy)phenyl]ethylamino}butyl-1-azabicyclo[2,2,2]octylonium bromide]
[1]; CCh 3 × 10^−6 mol/L, in vitro
  Onset time (min) ± SD: 6.23 ± 0.23 min
  Time for eliminating inhibition effect (min): more than 300 min
[1]
  EC50: 0.0358 ± 0.011 µM
[2]
  sel (β1/β2): 36.8
